Patent publication US5464834A, “N-substituted N'-heterobicyclic piperazines having pharmaceutical activity” (Adir et Compagnie, priority 1992, dated 1995)

Assays:
[1] = biological target: T1, 5HT1A receptors (Rattus norvegicus, UniProt P19327); assay: Drug discrimination (DD) 8-OH-DPAT; format: in vivo, rat (male Wistar); design: from tissue; host or cells: whole living male Wistar rats (endogenous receptor); details: for ED50: rat, sc, rats trained on 8-OH-DPAT 0.31 mg/kg
T1 sequence (P19327 1-422): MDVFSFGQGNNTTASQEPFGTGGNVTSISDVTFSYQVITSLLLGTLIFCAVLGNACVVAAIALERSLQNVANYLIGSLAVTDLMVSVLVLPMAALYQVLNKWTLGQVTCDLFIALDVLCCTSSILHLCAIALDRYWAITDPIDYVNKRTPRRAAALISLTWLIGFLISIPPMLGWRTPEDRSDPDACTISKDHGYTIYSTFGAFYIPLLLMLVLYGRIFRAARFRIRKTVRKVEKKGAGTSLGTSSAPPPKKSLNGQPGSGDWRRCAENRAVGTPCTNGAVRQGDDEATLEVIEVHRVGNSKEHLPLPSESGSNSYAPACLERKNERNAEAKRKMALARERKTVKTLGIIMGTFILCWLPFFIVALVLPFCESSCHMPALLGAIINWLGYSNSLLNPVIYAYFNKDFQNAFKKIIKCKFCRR
Protocol: (§1) The tests were carried out using male Wistar rats weighing 200 to 220 g having free access to their food and to their drinking water in standard cages.
Male rats are maintained at 85% of their normal body weight by means of food restriction. In soundproofed chambers the animals are trained to press a pedal to obtain food according to an FR10 procedure (Fixed Ratio 10; the food is supplied to the rat when it has pressed the lever 10 times).
Daily sessions of 15 minutes are preceded by an injection of solvent or of the training drug (0.31 mg/kg of 8-OH-DPAT, j.p.). The animal receives a pellet of food after pressing 10 times on the "solvent" or "drug" pedal according to the compound administered before the session.
After the learning period the animals are tested twice a week (Wednesday and Friday). On the other three days training sessions are carried out.
On the training days the rats are given either solvent or 8-OH-DPAT 15 minutes before being tested.
On the test days the rats receive the chemical substance 60 minutes before the session.
The capacity of the chemical substance administered to induce a response (pressing on the "solvent" or "drug" (8-OH-DPAT ) lever ) is recorded.
7 animals chosen at random are used for each substance and for each dose. During the test period, the lever on which the rat first presses 10 times is determined as the lever chosen--a food pellet is then delivered. That selected lever will be reinforced by the delivery of food up to the end of the test session. The percentage of animals selecting the "drug" lever at a particular dose is calculated. In addition, the total number of responses carried out on the two levers is expressed as a percentage of the number of responses carried out on the "solvent" lever obtained on the occasion of a preceding training session.
(§2) The doses of the compounds tested are all expressed in base terms. Unless specified otherwise, all of the compounds were dissolved in sterile water (to which if necessary a few drops of lactic acid were added) and administered at a volume of 1 ml/kg s.c.

[2] = biological target: T1, 5HT1A receptors; assay: Flat body posture (FBP), agonist (alone) and antagonist (vs 8-OH-DPAT); format: in vivo, rat (male Wistar); design: from tissue; host or cells: whole living male Wistar rats (endogenous receptor); details: for ED50: rat, sc
Protocol: as §1
The animals are isolated individually for the tests for hypothermia, corticosterone secretion and flat body posture, or combined in groups of three for the tailflick test.
The compounds to be studied were administered by the subcutaneous route (s.c.) 60 minutes before the beginning of the test, that is to say 30 minutes before the solvent (agonist responses) or the 8-OH-DPAT (antagonist responses).
In all of the tests the solvent is used in parallel as a control. The animals were left to rest in their cage during the period between the injections and the evaluation. For the agonist studies, the solvent was administered at 1 ml/kg s.c. 30 minutes before the beginning of the test. For the antagonist studies, doses of 8-OH-DPAT that induce sub-maximal responses were chosen, that is doses of 0.63, 0.16, 0.16 and 0.16 mg/kg s.c. for, respectively, the tail flick test, flat body posture test, corticosterone secretion test and hypothermia test.
The same animals were used to evaluate the influence of the compounds studied on FBP and on the determination of the plasma concentration of CS. All of the tests were carried out in the morning between 10.30 and 12.300 that is to say when the circadian levels of CS are lowest.
25 minutes after the treatment (that is to say 5 minutes before decapitation) the animals are observed in their cages and the presence or absence of FBP is noted.
The presence of FBP is defined by a characteristic posture of the animal. That posture is in the ventral decubitus position with the posterior limbs clearly extended. 5 minutes after the observation of FBP, the animals are decapitated and the blood from the trunk is collected in cooled tubes containing 50 μl of a 10% EDTA solution. After centrifugation at 4000 revs/min, the plasma is removed and stored at -30° C. until determination.
In general, after variance analysis, the results are subjected to the Dunett test. The results are taken as significant if p <0.05.
For the dose-response for the induction and inhibition of FBP, the ED50 values (doses at which 50% of the animals show a response) were calculated by the Litchfield and Wilcoxon method.
as §2

**Q.** Which results are given for `c1cc2c(c(N3CCN(CCCc4ccsc4)CC3)c1)OCCO2` [Example 1, 4-(Benzodioxan-5-yl)-1-[3-(thiophen-3-yl)propyl]piperazine]?
**A.** ED50 ([1]; antagonist, vs 8-OH-DPAT, read-out: DD 8-OH-DPAT ID50 (95% CL) + DPAT): 0.63 mg/kg; ED50 ([1]; compound alone, 60 min before session, read-out: DD 8-OH-DPAT ED50 (95% CL) alone): > 2.5 mg/kg; % MPA (% maximum possible antagonism), DD ([1]; vs 8-OH-DPAT): 100%; ED50 ([2]; agonist test, compound alone s.c., read-out: FBP ED50 (95% CL) alone): > 10 mg/kg; ED50 ([2]; antagonist test, s.c., vs 8-OH-DPAT 0.16 mg/kg s.c., read-out: FBP ID50 (95% CL) + DPAT): 0.48 mg/kg; % MPA (% maximum possible antagonism), FBP ([2]; vs 8-OH-DPAT 0.16 mg/kg s.c.): 100%
